Assay results published in patent US9517227B2, “Dihydropyrazoles” (Merck Patent GmbH, priority 2011, dated 2016).

Tests used:
FSHR = target: T1, FSHR (Homo sapiens, UniProt P23945); experiment: EC50 of cyclic AMP production in CHO FSHR cells + EC20 FSH (Assay A); type: cell-based; details: CHO-FSHR-LUC cells, 0.265 pM FSH (EC20), cAMP HTRF, 1 h
T1 construct: expressed in transfected cells; host or cells: CHO (Cho-FSHR-LUC-1-1-43)
T1 sequence (P23945 18-695): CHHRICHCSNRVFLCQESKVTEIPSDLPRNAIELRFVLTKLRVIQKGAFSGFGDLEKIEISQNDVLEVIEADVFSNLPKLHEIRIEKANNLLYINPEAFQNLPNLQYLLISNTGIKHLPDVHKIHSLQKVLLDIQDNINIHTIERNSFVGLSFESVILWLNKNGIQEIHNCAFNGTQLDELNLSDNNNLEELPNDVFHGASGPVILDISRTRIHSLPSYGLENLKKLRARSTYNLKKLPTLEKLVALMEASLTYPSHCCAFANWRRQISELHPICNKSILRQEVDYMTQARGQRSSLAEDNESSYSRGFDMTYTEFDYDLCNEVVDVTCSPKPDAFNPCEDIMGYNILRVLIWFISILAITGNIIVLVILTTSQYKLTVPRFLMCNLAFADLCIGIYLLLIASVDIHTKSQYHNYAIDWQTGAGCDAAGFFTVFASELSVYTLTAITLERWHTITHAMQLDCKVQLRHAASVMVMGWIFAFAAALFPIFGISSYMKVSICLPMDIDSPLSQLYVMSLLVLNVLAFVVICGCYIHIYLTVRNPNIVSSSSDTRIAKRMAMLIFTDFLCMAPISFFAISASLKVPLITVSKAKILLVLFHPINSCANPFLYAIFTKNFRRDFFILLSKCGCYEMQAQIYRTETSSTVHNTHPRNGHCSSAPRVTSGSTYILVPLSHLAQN
Experimental: EC50 of Cyclic AMP Production in CHO FSHR Cells+EC20 FSH (Assay A)
2500 Cho-FSHR-LUC-1-1-43 cells were plated per well in 5 μl of phenol red free DMEM/F12+1% FBS. Cells were plated in 384 well, solid white low volume plates (Greiner 784075) by Multidrop. Cells were assayed by adding 100 μl of 2×EC20 FSH/IBMX in DMEM/F12+0.1% BSA) by Multidrop to 2 μl of test compound stamped in 384 well plates (compounds are diluted 1:50). The final FSH concentration was 0.265 pM, and the final IBMX concentration was 200 μM. The compound plate map was as follows: Column 1: 2 μl of DMSO; Column 2: 2 μl of DMSO; Columns 3-12 and 13-24: 2 μl of test compound, diluted 1:4 in 100% DMSO, or 2 μl of FSH, diluted 1:4 in DMEM/F12+0.1% BSA. The starting concentration for FSH was 50 nM (final concentration was 0.5 nM). Furthermore, Column 23 contained 2 μl of EC100 FSH reference (100×) (diluted in DMEM/F12+0.1% BSA) at a final concentration of 0.5 nM, and Column 24 contained 2 μl of 1 mM AS707664/2 reference compound 2. 5 μl of compound+EC20 FSH mixture were transferred to cell plates (1:2 dilution into 5 μl of cell media). The plates were incubated at 37° C. for 1 h. 10 μl of mixed HTRF (CisBio #62AM4PEC) reagents were added per well and incubated at room temperature for 1 h. The plates were read on Envision using the cAMP HTRF—low volume 384 well protocol. The readout was the calculated fluorescence ratio (665 nm/620 nm).

[1] = target: T2, follicle-stimulating hormone (FSH) receptor (Rattus norvegicus, UniProt P20395); experiment: Rat granulosa EC50 FSH (Assay B); type: cell-based; details: rat granulosa cells; for EC50: per Yanofsky et al. 2006
T2 construct: endogenous in cells; host or cells: rat granulosa cells
T2 sequence (P20395 18-692): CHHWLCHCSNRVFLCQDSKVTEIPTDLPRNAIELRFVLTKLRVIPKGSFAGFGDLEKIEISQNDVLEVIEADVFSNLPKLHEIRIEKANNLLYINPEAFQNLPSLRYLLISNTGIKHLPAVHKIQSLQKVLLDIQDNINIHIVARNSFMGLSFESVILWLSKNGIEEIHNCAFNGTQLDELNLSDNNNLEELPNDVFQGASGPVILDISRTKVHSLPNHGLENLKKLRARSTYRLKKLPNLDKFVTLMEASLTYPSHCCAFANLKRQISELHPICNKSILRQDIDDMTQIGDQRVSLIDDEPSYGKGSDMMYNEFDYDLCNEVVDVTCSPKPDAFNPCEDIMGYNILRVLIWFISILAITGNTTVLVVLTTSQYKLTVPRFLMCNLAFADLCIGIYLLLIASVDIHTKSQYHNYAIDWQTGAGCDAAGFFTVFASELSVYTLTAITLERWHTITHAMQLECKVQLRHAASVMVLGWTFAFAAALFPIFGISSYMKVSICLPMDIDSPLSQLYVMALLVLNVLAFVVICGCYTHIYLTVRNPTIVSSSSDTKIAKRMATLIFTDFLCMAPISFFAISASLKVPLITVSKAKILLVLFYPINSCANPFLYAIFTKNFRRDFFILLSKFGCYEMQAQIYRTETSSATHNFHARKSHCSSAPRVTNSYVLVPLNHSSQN
Experimental: Rat Granulosa EC50 FSH (Assay B)
The assay was performed pursuant to the teaching of Yanofsky et al. (2006) Allosteric activation of the follicle-stimulating hormone (FSH) receptor by selective, nonpeptide agonists. JBC 281(19): 13226-13233, which is incorporated by reference in the disclosure of the invention.

Structure (SMILES) | EC50 (FSHR) | EC50 [1] | Assay B: value given in % (rat granulosa) ([1]; meaning of % not stated)
COc1ccc(C2=NN(C(=O)c3cccc(F)c3F)CC2)cc1OC [Compound 77] | 8.61 µM | 0.729 µM | –
COc1ccc(C2=NN(C(=O)c3cccc(Br)c3)CC2)cc1OC [Compound 61] | 9.75 µM | 0.465 µM | –
COc1ccc(C2=NN(C(=O)c3cc(F)c(F)c(F)c3F)CC2)cc1OC [Compound 80] | 28 µM | 1.19 µM | –
COc1ccc(C2=NN(C(=O)c3cccc(C)c3)CC2)cc1OC [Compound 65] | 21 µM | 5.09 µM | –
COc1ccc(C2=NN(C(=O)c3cccc(F)c3)CC2)cc1OC [Compound 1] | 16.7 µM | 0.878 µM | –
COc1ccc(C2=NN(C(=O)c3cccc(Oc4ccccc4)c3)CC2)cc1OC [Compound 70] | 39 µM | 0.11 µM | –
COc1ccc(C2=NN(C(=O)c3cccc(C(F)(F)F)c3)CC2)cc1OC [Compound 64] | 11 µM | 0.348 µM | –
COc1ccc(C2=NN(C(=O)c3cccc(Cl)c3)CC2)cc1OC [Compound 62] | 6.49 µM | 0.0981 µM | –

More lines, now with the values ahead:

EC50 (FSHR) | EC50 [1] | Assay B: value given in % (rat granulosa) ([1]; meaning of % not stated) | Structure (SMILES)
30 µM | 0.106 µM | – | COc1ccc(C2=NN(C(=O)c3ccc(C)c(F)c3)CC2)cc1OC [Compound 136]
23 µM | 0.413 µM | – | COc1ccc(C2=NN(C(=O)c3ccc4c(c3)OCO4)C(C)(C)C2)cc1OC [Compound 131, [1,3]Dioxol-5-yl-[3-(3,4-dimethoxy-phenyl)-5,5-dimethyl-4,5-dihydro-pyrazol-1-yl]-methanone]
25.3 µM | 1.73 µM | – | COc1ccc(C2=NN(C(=O)c3ccc(F)c(C(F)(F)F)c3)C(C)(C)C2)cc1OC [Compound 236, [3-(3,4-Dimethoxy-phenyl)-5,5-dimethyl-4,5-dihydro-pyrazol-1-yl]-(4-fluoro-3-trifluoromethyl-phenyl)-methanone]
35.7 µM | 0.538 µM | – | COc1ccc(C2=NN(C(=O)c3ccc(C)cc3)C(C)(C)C2)cc1OC [Compound 235, [3-(3,4-Dimethoxy-phenyl)-5,5-dimethyl-4,5-dihydro-pyrazol-1-yl]-p-tolyl-methanone]
41.5 µM | 0.025 µM | – | COc1ccc(C2=NN(C(=O)c3cccc(C#N)c3)C(C)(C)C2)cc1OC [Compound 132, 3-[3-(3,4-Dimethoxy-phenyl)-5,5-dimethyl-4,5-dihydro-pyrazole-1-carbonyl]-benzonitrile]
38.7 µM | 0.572 µM | – | COc1ccc(C2=NN(C(=O)c3cccc(C)c3)C(C)(C)C2)cc1OC [Compound 232, [3-(3,4-Dimethoxy-phenyl)-5,5-dimethyl-4,5-dihydro-pyrazol-1-yl]-m-tolyl-methanone]
27 µM | 0.726 µM | – | CCc1cccc(C(=O)N2CCC(c3ccc(OC)c(OC)c3)=N2)c1 [Compound 93]
29 µM | – | 186.00% | COc1ccc(C2=NN(C(=O)[C@@H](OC)c3ccccc3)CC2)cc1OC [Compound 292]
35 µM | 0.598 µM | – | COc1ccc(C2=NN(C(=O)c3ccc(F)c(Cl)c3)C(C)(C)C2)cc1OC [Compound 237, (3-Chloro-4-fluoro-phenyl)-[3-(3,4-dimethoxy-phenyl)-5,5-dimethyl-4,5-dihydro-pyrazol-1-yl]-methanone]
2.2 µM | 0.128 µM | – | COc1ccc(C2=NN(C(=O)c3ccc(Oc4ccccc4)cc3)C(C)(C)C2)cc1OC [Compound 230, [3-(3,4-Dimethoxy-phenyl)-5,5-dimethyl-4,5-dihydro-pyrazol-1-yl]-(4-phenoxy-phenyl)-methanone]
